Reference: patent publication US12263171B2, “7-, 8-, and 10-substituted amino triazolo quinazoline derivatives as adenosine receptor antagonists, pharmaceutical compositions and their use” (Merck Sharp & Dohme LLC, priority 2018, dated 2025)

Key:
[1] = target: human A2a adenosine receptor (Homo sapiens (Human), UniProt P29274); test: A2a receptor affinity radioligand binding assay ([3H] SCH58261, membranes from HEK293 or CHO cells); details: unstarred values: radioligand binding
Method in brief: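 Displacement of tritiated SCH58261 (working dilution 4 nM) from recombinant human A2a receptor membranes (HEK293 or CHO), 60 min at room temperature in Tris pH 7.4/MgCl2 buffer after 15–30 min compound preincubation. Scintillation counting after filtration; normalized percent effect fitted 4-parameter logistic for IC50.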

[2] = target: human A2b adenosine receptor (Homo sapiens (Human), UniProt P29275); test: A2b radioligand filtration binding assay (tritiated proprietary A2b antagonist, HEK293 membranes); details: unstarred values: radioligand binding
Chain of human A2b adenosine receptor (P29275 whole entry): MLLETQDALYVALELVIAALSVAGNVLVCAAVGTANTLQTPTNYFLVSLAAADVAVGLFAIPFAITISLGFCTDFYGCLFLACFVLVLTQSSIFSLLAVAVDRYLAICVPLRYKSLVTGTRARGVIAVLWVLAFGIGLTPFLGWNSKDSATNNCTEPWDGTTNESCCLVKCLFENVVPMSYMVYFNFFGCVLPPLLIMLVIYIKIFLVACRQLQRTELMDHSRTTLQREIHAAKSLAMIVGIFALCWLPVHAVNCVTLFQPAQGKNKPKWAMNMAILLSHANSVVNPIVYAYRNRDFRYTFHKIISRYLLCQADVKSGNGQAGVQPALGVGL
Method in brief: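 Displacement of a tritiated proprietary A2b antagonist from membranes of HEK293 cells recombinantly expressing human A2b receptor, measured by filtration and scintillation counting. Percent effect was normalized to total and non-specific binding and fitted with a 4-parameter logistic to give IC50.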

Chain of human A2a adenosine receptor (P29274 whole entry): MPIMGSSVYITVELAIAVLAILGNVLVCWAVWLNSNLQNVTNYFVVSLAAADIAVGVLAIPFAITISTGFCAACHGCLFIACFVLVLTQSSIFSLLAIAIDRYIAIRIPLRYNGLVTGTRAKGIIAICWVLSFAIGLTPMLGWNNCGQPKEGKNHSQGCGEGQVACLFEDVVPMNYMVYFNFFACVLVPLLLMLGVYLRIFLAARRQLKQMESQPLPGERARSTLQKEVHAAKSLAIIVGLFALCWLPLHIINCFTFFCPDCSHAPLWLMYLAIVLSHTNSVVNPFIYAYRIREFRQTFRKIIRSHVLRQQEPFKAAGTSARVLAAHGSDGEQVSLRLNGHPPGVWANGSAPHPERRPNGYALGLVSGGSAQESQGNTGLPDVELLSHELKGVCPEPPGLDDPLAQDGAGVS

| SMILES | IC50 [1] | IC50 [2] |
| --- | --- | --- |
| COc1cccc2c1nc(N)n1nc([C@@H]3CCCN(c4ncn(CC(C)(C)O)n4)C3)nc21 [Example 64, (R)-1-(3-(3-(5-amino-7-methoxy[1,2,4]triazolo[1,5-c]quinazolin-2-yl)piperidin-1-yl)-1H-1,2,4-triazol-1-yl)-2-methylpropan-2-ol] | 0.1 nM | 374 nM |
| COc1cccc2c1nc(N)n1nc([C@@H]3CCCN(c4ccn(C)n4)C3)nc21 [Example 66, (R)-7-methoxy-2-(1-(1-methyl-1H-pyrazol-3-yl)piperidin-3-yl)-[1,2,4]triazolo[1,5-c]quinazolin-5-amine] | 0.7 nM | 144 nM |
| COc1cccc2c1nc(N)n1nc([C@@H]3CCCN(c4cn(C)nn4)C3)nc21 [Example 67, (R)-7-methoxy-2-(1-(1-methyl-1H-1,2,3-triazol-4-yl)piperidin-3-yl)-[1,2,4]triazolo[1,5-c]quinazolin-5-amine] | 1 nM | 2 nM |
| COc1cccc2c1nc(N)n1nc([C@@H]3CCCN(c4ncn(C5CCOCC5)n4)C3)nc21 [Example 68, (R)-7-methoxy-2-(1-(1-(tetrahydro-2H-pyran-4-yl)-1H-1,2,4-triazol-3-yl)piperidin-3-yl)-[1,2,4]triazolo[1,5-c]quinazolin-5-amine] | 0.3 nM | 340 nM |
| COc1cccc2c1nc(N)n1nc([C@@H]3CCCN(c4ncn(CC(F)(F)F)n4)C3)nc21 [Example 69, (R)-7-methoxy-2-(1-(1-(2,2,2-trifluoroethyl)-1H-1,2,4-triazol-3-yl)piperidin-3-yl)-[1,2,4]triazolo[1,5-c]quinazolin-5-amine] | 0.6 nM | 144 nM |
| COc1cccc2c1nc(N)n1nc([C@@H]3CCCN(c4nn(C)nc4C)C3)nc21 [Example 70, (R)-2-(1-(2,5-dimethyl-2H-1,2,3-triazol-4-yl)piperidin-3-yl)-7-methoxy-[1,2,4]triazolo[1,5-c]quinazolin-5-amine] | 0.8 nM | 151 nM |
| COc1cccc2c1nc(N)n1nc([C@@H]3CCCN(c4nnc5n4CCNC5)C3)nc21 [Example 71, (R)-7-methoxy-2-(1-(5,6,7,8-tetrahydro-[1,2,4]triazolo[4,3-a]pyrazin-3-yl)piperidin-3-yl)-[1,2,4]triazolo[1,5-c]quinazolin-5-amine] | 0.2 nM | 5610 nM |
| COc1cccc2c1nc(N)n1nc([C@@H]3CCCN(c4cnn(C5CCOCC5)n4)C3)nc21 [Example 72, (R)-7-methoxy-2-(1-(2-(tetrahydro-2H-pyran-4-yl)-2H-1,2,3-triazol-4-yl)piperidin-3-yl)-[1,2,4]triazolo[1,5-c]quinazolin-5-amine] | 0.9 nM | 119 nM |
| COc1cccc2c1nc(N)n1nc([C@@H]3CCCN(c4cn(CC(F)(F)F)nn4)C3)nc21 [Example 73, (R)-7-methoxy-2-(1-(1-(2,2,2-trifluoroethyl)-1H-1,2,3-triazol-4-yl)piperidin-3-yl)-[1,2,4]triazolo[1,5-c]quinazolin-5-amine] | 0.8 nM | 1.9 nM |
| COc1cccc2c1nc(N)n1nc([C@@H]3CCCN(c4cc(C)n(C)n4)C3)nc21 [Example 74, (R)-2-(1-(1,5-dimethyl-1H-pyrazol-3-yl)piperidin-3-yl)-7-methoxy-[1,2,4]triazolol[1,5-c]quinazolin-5-amine] | 1 nM | 3.1 nM |
| COc1cccc2c1nc(N)n1nc([C@@H]3CCCN(c4cnn(C)n4)C3)nc21 [Example 75, (R)-7-methoxy-2-(1-(2-methyl-2H-1,2,3-triazol-4-yl)piperidin-3-yl)-[1,2,4]triazolo[1,5-c]quinazolin-5-amine] | 1 nM | 11.6 nM |
| COc1cccc2c1nc(N)n1nc([C@@H]3CCCN(c4cn(C)cn4)C3)nc21 [Example 76, (R)-7-methoxy-2-(1-(1-methyl-1H-imidazol-4-yl)piperidin-3-yl)-[1,2,4]triazolo[1,5-c]quinazolin-5-amine] | 3.6 nM | 1780 nM |
| COc1cccc2c1nc(N)n1nc([C@@H]3CCCN(c4nccn4C)C3)nc21 [Example 81, (R)-7-methoxy-2-(1-(1-methyl-1H-imidazol-2-yl)piperidin-3-yl)-[1,2,4]triazolo[1,5-c]quinazolin-5-amine] | 1.4 nM | 813 nM |
| COc1cccc2c1nc(N)n1nc([C@@H]3CCCN(c4ccn(C)c(=O)c4)C3)nc21 [Example 87, (R)-4-(3-(5-amino-7-methoxy-[1,2,4]triazolo[1,5-c]quinazolin-2-yl)piperidin-1-yl)-1-methylpyridin-2(1H)-one] | 1.5 nM | 858 nM |
| COc1cccc2c1nc(N)n1nc([C@@H]3CCCN(c4ccc(=O)n(C)c4)C3)nc21 [Example 88, (R)-5-(3-(5-amino-7-methoxy-[1,2,4]triazolo[1,5-c]quinazolin-2-yl)piperidin-1-yl)-1-methylpyridin-2(1H)-one] | 2 nM | 295 nM |
| COc1cccc2c1nc(N)n1nc([C@@H]3CCCN(c4ccc(=O)n(C(F)F)c4)C3)nc21 [Example 92, (R)-5-(3-(5-amino-7-methoxy-[1,2,4]triazolo[1,5-c]quinazolin-2-yl)piperidin-1-yl)-1-(difluoromethyl)pyridin-2(1H)-one] | 0.7 nM | 196 nM |

| SMILES | IC50 [1] | IC50 [2] |
| --- | --- | --- |
| COc1cccc2c1nc(N)n1nc([C@@H]3CCCN(c4cc(C)c(=O)n(C)c4)C3)nc21 [Example 93] | 1.5 nM | 229 nM |
| COc1cccc2c1nc(N)n1nc([C@@H]3CCCN(c4ccc(=O)n(C(C)C)c4)C3)nc21 [Example 96, (R)-5-(3-(5-amino-7-methoxy-[1,2,4]triazolo[1,5-c]quinazolin-2-yl)piperidin-1-yl)-1-isopropylpyridin-2(1H)-one] | 0.6 nM | 291 nM |
| COc1cccc2c1nc(N)n1nc([C@@H]3CCCN(c4ccc(=O)n(C)n4)C3)nc21 [Example 98, (R)-6-(3-(5-amino-7-methoxy-[1,2,4]triazolo[1,5-c]quinazolin-2-yl)piperidin-1-yl)-2-methylpyridazin-3(2H)-one] | 1.4 nM | 691 nM |
| COc1cccc2c1nc(N)n1nc([C@@H]3CCCN(c4cc(C(F)(F)F)c(=O)n(C)c4)C3)nc21 [Example 99, (R)-5-(3-(5-amino-7-methoxy-[1,2,4]triazolo[1,5-c]quinazolin-2-yl)piperidin-1-yl)-1-methyl-3-(trifluoromethyl)pyridin-2(1H)-one] | 0.6 nM | 98.4 nM |
| COc1cccc2c1nc(N)n1nc([C@@H]3CCCN(c4cnc(OC(F)F)c(C)c4)C3)nc21 [Example 100, (R)-2-(1-(6-(difluoromethoxy)-5-methylpyridin-3-yl)piperidin-3-yl)-7-methoxy-[1,2,4]-triazolo[1,5-c]quinazolin-5-amine] | 0.7 nM | 56.8 nM |
| COc1cccc2c1nc(N)n1nc([C@@H]3CCCN(c4nccnc4C)C3)nc21 [Example 101, (R)-7-methox-2-(1-(3-methylpyrazin-2-yl)piperidin-3-yl)-[1,2,4]triazolo[1,5-c]quinazolin-5-amine] | 0.5 nM | 178 nM |
| COc1cccc2c1nc(N)n1nc([C@@H]3CCCN(c4cnccn4)C3)nc21 [Example 102, (R)-7-methoxy-2-(1-(pyrazin-2-yl)piperidin-3-yl)-[1,2,4]triazolo[1,5-c]quinazolin-5-amine] | 1 nM | 151 nM |
| COc1cccc2c1nc(N)n1nc([C@@H]3CCCN(c4cncc(C)n4)C3)nc21 [Example 103, (R)-7-methoxy-2-(1-(6-methylpyrazin-2-yl)piperidin-3-yl)-[1,2,4]triazolo[1,5-c]quinazolin-5-amine] | 1.2 nM | 159 nM |
| COc1cccc2c1nc(N)n1nc([C@@H]3CCCN(c4cncc(C(F)(F)F)n4)C3)nc21 [Example 104, (R)-7-methoxy-2-(1-(6-(trifluoromethyl)pyrazin-2-yl)piperidin-3-yl)-[1,2,4]triazolo[1,5-c]quinazolin-5-amine] | 0.1 nM | 3330 nM |
| COc1cccc2c1nc(N)n1nc([C@@H]3CCCN(c4cnc(C5CC5)cn4)C3)nc21 [Example 105, (R)-2-(1-(5-cyclopropylpyrazin-2-yl)piperidin-3-yl)-7-methoxy-[1,2,4]triazolo[1,5-c]quinazolin-5-amine] | 0.7 nM | 165 nM |
| COc1cccc2c1nc(N)n1nc([C@@H]3CCCN(c4cnc(C)cn4)C3)nc21 [Example 106, (R)-7-methoxy-2-(1-(5-methylpyrazin-2-yl)piperidin-3-yl)-[1,2,4]triazolo[1,5-c]quinazolin-5-amine] | 0.1 nM | 245 nM |
| COc1cccc2c1nc(N)n1nc([C@@H]3CCCN(c4ccc(C(C)C)nn4)C3)nc21 [Example 107, (R)-2-(1-(6-isopropylpyridazin-3-yl)piperidin-3-yl)-7-methoxy-[1,2,4]triazolo[1,5-c]quinazolin-5-amine] | 2.1 nM | 275 nM |
| COc1cccc2c1nc(N)n1nc([C@@H]3CCCN(c4ccc(F)cn4)C3)nc21 [Example 115, (R)-2-(1-(5-fluoropyridin-2-yl)piperidin-3-yl)-7-methoxy-[1,2,4]triazolo[1,5-c]quinazolin-5-amine] | 1.2 nM | 59.1 nM |
| COc1cccc2c1nc(N)n1nc([C@@H]3CCCN(c4ncccn4)C3)nc21 [Example 117, (R)-7-methoxy-2-(1-(pyrimidin-2-yl)piperidin-3-yl)-[1,2,4]triazolo[1,5-c]quinazolin-5-amine] | 0.9 nM | 431 nM |
| COc1cccc2c1nc(N)n1nc([C@@H]3CCCN(c4cnn(C5CS(=O)(=O)C5)c4)C3)nc21 [Example 121, (R)-3-(4-(3-(5-amino-7-methoxy-[1,2,4]triazolo[1,5-c]quinazolin-2-yl)piperidin-1-yl)-1H-pyrazol-1-yl)thietane 1,1-dioxide] | 3.6 nM | 284 nM |
